# Patent US20250339566A1, “INHIBITORS OF FIBROBLAST ACTIVATION PROTEIN” (UNIVERSITEIT ANTWERPEN, priority 2022, published 2025)
# How the values were obtained:
# U87MG xenografts [1] = assay: Ex vivo biodistribution in tumor-bearing animals; set-up: species or system mice; conditions: 60 min p.i.
# Procedure: In accordance with the PET results, the biodistribution study confirmed the high and specific tumor uptake of all FAP radioligands at 60 min post-injection (p.i.) (Table 6).
# Human recombinant PREP = target: T1, Human recombinant PREP (Homo sapiens, UniProt P48147); assay: PREP IC50 measurement (N-succinyl-Gly-Pro-AMC); type: biochemical; conditions: FIG. 1, Compound 1 versus Compound 0
# T1 construct: made in house; host or cells: E. coli BL21(DE3)
# T1 sequence (P48147 1-710): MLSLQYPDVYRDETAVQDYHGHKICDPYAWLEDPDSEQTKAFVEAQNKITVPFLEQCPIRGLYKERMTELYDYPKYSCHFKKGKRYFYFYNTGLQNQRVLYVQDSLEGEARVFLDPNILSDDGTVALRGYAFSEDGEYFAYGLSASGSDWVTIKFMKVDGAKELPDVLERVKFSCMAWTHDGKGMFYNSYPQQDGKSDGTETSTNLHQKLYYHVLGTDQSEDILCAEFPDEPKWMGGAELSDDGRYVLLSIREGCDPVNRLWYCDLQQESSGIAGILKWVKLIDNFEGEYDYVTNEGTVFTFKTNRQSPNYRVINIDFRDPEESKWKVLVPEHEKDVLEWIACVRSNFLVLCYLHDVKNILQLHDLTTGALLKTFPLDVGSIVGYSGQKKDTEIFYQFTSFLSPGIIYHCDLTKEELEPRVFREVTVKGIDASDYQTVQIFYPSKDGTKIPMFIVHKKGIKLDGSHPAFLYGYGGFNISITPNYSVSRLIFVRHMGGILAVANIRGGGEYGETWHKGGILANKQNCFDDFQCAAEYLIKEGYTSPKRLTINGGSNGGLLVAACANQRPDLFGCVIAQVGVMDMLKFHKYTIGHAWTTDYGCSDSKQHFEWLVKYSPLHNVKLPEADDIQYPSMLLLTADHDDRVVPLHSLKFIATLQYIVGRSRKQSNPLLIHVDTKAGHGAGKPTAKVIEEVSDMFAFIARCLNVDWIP
# Description: Used Enzymes in these Assays: • A gateway-entry clone for human FAP was purchased from Dharmacon (Accession number DQ891423) and the human secretion signal was replaced with the HoneyBee mellitin secretion signal. For transfection and expression of FAP in Sf9 insect cells the C-terminal BaculoDirect kit from LifeTechnologies was used. The enzyme was purified from the supernatant of the insect cells using immobilized Ni-chelating chromatography (GE healthcare, Diegem, Belgium), followed by anion-exchange chromatography using a 1 mL HiTrap Q and size exclusion chromatography using the Superdex 200 column (GE healthcare, Diegem, Belgium). • Human recombinant PREP was expressed in BL21(DE3) cells and purified using immobilized Co-chelating chromatography (GE healthcare), followed by anion-exchange chromatography on a 1 ml Mono Q column (GE healthcare). • DPP4 was purified from human seminal plasma. • Gateway-entry clones for human DPP8 and DPP9 were purchased from Dharmacon (Accession numbers DQ891733 and DQ892325 respectively). For transfection and expression of DPP8 and DPP9 in Sf9 insect cells the N-terminal BaculoDirect kit from LifeTechnologies was used. The enzymes were purified using immobilized Ni-chelating chromatography (GE healthcare, Diegem, Belgium), followed by anion-exchange chromatography using a 1 mL Mono Q (GE healthcare, Diegem, Belgium). • Recombinant human DPP2 was purchased from R&D.
# Eight concentrations of inhibitors/probe were tested. The final DMSO concentration was kept constant during the experiment to exclude any effects. Inhibitors were pre-incubated with the enzyme for 15 minutes at 37° C., afterwards the substrate was added and the velocities of AMC release were measured kinetically at λex=380 nm, λem=465 nm for at least 10 minutes at 37° C. […] Eight concentrations of inhibitors were tested. The final DMSO concentration in kept constant during the experiment to exclude any effects. Inhibitors were pre-incubated with the enzyme for 15 minutes at 37° C., afterwards the substrate was added and the velocities of AMC release were measured kinetically at λex=380 nm, λem=465 nm for at least 10 minutes at 37° C. […] At least eight different inhibitor concentrations were used. The final DMSO concentration is kept constant during the experiment to exclude any effects. Inhibitors were pre-incubated with the enzyme for 15 minutes at 37° C., afterwards the substrate was added and the velocities of pNA release were measured kinetically at 405 nm for at least 10 minutes at 37° C. Measurements were done on the Infinite 200 (Tecan Group Ltd.) and the Magellan software was used to process the data. • For DPP2: Initial velocity measurements were carried out. Lys-Ala-pNA was used as the substrate at a concentration of 1 mM at pH 5.5 (100 mM NaAc, 10 mM EDTA, 14 μg/mL aprotinin). Inhibitors were tested at one concentration, 5 μM, being the final concentration in the well. Inhibitors were pre-incubated with the enzyme for 15 minutes at 37° C., afterwards the substrate was added and the velocities of pNA release were measured kinetically at 405 nm for at least 10 minutes at 37° C. Measurements were done on the Infinite 200 (Tecan Group Ltd.) and the Magellan software was used to process the data.
# [2] = Biodistribution in control animals (FIG. 3); type: in vivo; conditions: FIG. 3, normal CD1 nude mice, 15, 30, 60 min p.i.
# Procedure: (§1) For all in vivo studies the following experimental procedure was used. Mice (7- to 8-week old female CD1−/− nude mice) were injected with 5.1-7.4 MBq of compound 1 (n=9) via the lateral tail vein. At 15, 30, 60 (n=3 for each time point) post-radiotracer injection (p.i.) the blood was collected in EDTA-coated tubes through cardiac puncture and the mice were euthanized by cervical dislocation.
# The uptake levels of the tracers were expressed as percentage of the injected dose per gram (% ID g^−1).
# FIG. 3 summarizes the tissue biodistribution (% injected dose/gram of tissue) of [^18F]UAMC-4522 (compound 1) and of compound 0 in normal CD1 nude mice after 15, 30, and 60 min p.i. (n=3 per timepoint).
# [3] = Partition coefficient (Log D) of radiotracer; type: physicochemical; conditions: organic solvent / aqueous solution (solvents not named); mean with standard deviation (n=8)
# Procedure: Radiotracer characterization: To assess the quality and suitability of compound 1 ([^18F]UAMC-4522) for specific applications, such as medical imaging, several parameters were determined. First, the decay-corrected RCY (Radiochemical Yield) was calculated. This indicates the percentage of the desired radioactively labeled molecule after correction for radioactive decay. It is calculated by dividing the amount of radioactively labeled molecule by the total radioactivity, taking into account the time elapsed since radiolabeling. Next, the Apparent Molar Activity (Am) was calculated. This represents the activity of the radiotracer per unit of substance (e.g. per micromole). It is calculated by dividing the activity of the radiotracer by the amount of labeled molecule used. Next, the Radiochemical Purity (RCP) was determined. This indicates the percentage of the radioactively labeled molecule relative to other chemical components or impurities. It is often determined using analytical techniques such as radio-HPLC (High-Performance Liquid Chromatography) or radio-TLC (Thin-Layer Chromatography). Finally, the Partition Coefficient (Log D) was calculated. This reflects the distribution of a substance between two solvents with different polarities. The Log D value represents the ratio of the concentrations of the substance in an organic solvent and an aqueous solution. […]
# [4] = In vivo stability of radiotracer in plasma; set-up: species or system CD1 nude mice; conditions: for Mean % intact radiotracer ± SD: CD1 nude mice
# Procedure: as §1
# From the collected blood, the plasma fraction was obtained by centrifugation at 4,000 g for 7 min, and mixed (200 μL) with an equal volume of cold MeCN to enable sample deproteination. After vigorously vortexing and γ-counting, the samples were centrifuged at 4000 g for 4 min, and the supernatant and the pellet were γ-counted separately to determine the amount of recovered radioactivity in the organic phase. The radioactive contents of the supernatant were analyzed by analytical radio-HPLC. The eluate fractions were collected every 30 s and counted for radioactivity in an automated γ-counter.
# [5] = Metabolic stability comparison (FIG. 2); conditions: FIG. 2, Compound 1 versus Compound 0
# U87MG xenografts [6] = conditions: mouse
# Procedure: Dynamic whole-body PET images were acquired during 60 min. The average tumor or muscle activity per volume was obtained from the PET images and the decay-corrected time-activity curves (TACs) were extracted. At the end of the scans, the organs and tissues were harvested, weighed and the radioactivity in the samples was measured using an automatic γ-counter.
# [7] = female, CD1-/- nude, in vivo, 60 min
compound,measurement,setting,value
[2H]C([2H])([18F])[N+](C)(C)CCCOc1ccc2nccc(C(=O)NCC(=O)N3CC(F)(F)C[C@H]3C#N)c2c1 [Compound 1],Tumor (% ID/g),U87MG xenografts [1],10.98 ± 1.73 % ID/g
same,Tumor-to-blood,U87MG xenografts [1],6.35 ± 1.08
same,Tumor-to-liver,U87MG xenografts [1],4.77 ± 0.58
same,Tumor-to-muscle,U87MG xenografts [1],6.54 ± 1.36
same,Tumor-to-small intestine,U87MG xenografts [1],2.43 ± 0.12
same,selectivity for FAP with respect to PREP (in words),Human recombinant PREP,significantly higher selectivity for FAP
same,biodistribution / excretion profile (in words),[2],biodistribution profile including urinary excretion
same,logD,[3],-1.77 ± 0.01
same,Mean % intact radiotracer ± SD,[4]; 15 min p.i.,74.84 ± 6.62%
same,Mean % intact radiotracer ± SD,[4]; 30 min p.i.,60.23 ± 3.60%
same,Mean % intact radiotracer ± SD,[4]; 60 min p.i.,56.47 ± 7.81%
same,Mean % intact radiotracer ± SD,[4]; time 0 min,99.12 ± 0.51%
same,in vivo stability (in words),[4]; compared with the control [68Ga]Ga-DOTA-FAPI-04,significantly higher
same,metabolic stability (in words),[5],significantly higher metabolic stability
same,tumor uptake (PET),U87MG xenografts [6]; [7],10.16±2.22 % ID/mL
same,uptake in the muscle (PET),U87MG xenografts [6]; [7],2.20±0.33 % ID/mL
same,uptake into tumor tissue in vivo (in words),U87MG xenografts [6],significantly higher uptake
same,nonspecific tumor uptake (in words),U87MG xenografts [6]; in vivo,lower nonspecific tumor uptake
same,tumor time-activity curve (in words),U87MG xenografts [6]; in vivo,early peak uptake in the tumor followed by retention or slight increase in the tumor
same,"tumor uptake after pre-injection of UAMC-1110 (blocking study, in words)",U87MG xenografts [6]; in vivo,decrease in tumor uptake
